Experimental data as given in US20250108036A1, “COMPOSITIONS FOR REMOVING SENESCENT CELLS AND USES THEREOF” (LIFECEUTIX CO., LTD., priority 2021, published 2025).

Key:
Format in all cases: cell-based, human
[1] = system: HMGN1; assay: HMGN1 ELISA in culture medium of foreskin cells (Examples 10, 11; Tables 62, 63, 64); conditions: Homo sapiens, doxorubicin-treated foreskin cells, DMSO = 100; for activity at 90 µM: 90 μM test compound; for activity at 30 µM: 30 μM test compound, read-out: HMGN1; for activity at 270 µM: 270 μM test compound
[2] = system: foreskin cells in which senescence was induced by doxorubicin; assay: CellTiter-Glo cell viability of doxorubicin-induced senescent foreskin cells (Examples 1-2, 10, 11, 13; Tables 4, 63, 65); conditions: Homo sapiens, 72 h, doxorubicin-induced senescent foreskin cells, CellTiter-Glo, 0 μM = 100, read-out: Survival (%); for viability at 1.1 µM: 1.1 μM test compound; for viability at 10 µM: 10 μM test compound; for viability at 30 µM: 30 μM test compound; for viability at 90 µM: 90 μM test compound; for viability at […]: […] test compound; for viability at 270 µM: 270 μM test compound
Method: After 3 days, cell viability was measured using CellTiter-Glo Luminescent Cell Viability Assay (Promega) or light microscopy.

[3] = system: A549; assay: CellTiter-Glo cell viability of senescent A549 cancer cells (Example 12, Table 67); conditions: Homo sapiens, A549, doxorubicin-induced senescent A549 cancer cells, CellTiter-Glo, read-out: Survival (%); for viability at 1.1 µM: 1.1 μM test compound; for viability at 10 µM: 10 μM test compound; for viability at 30 µM: 30 μM test compound; for viability at 90 µM: 90 μM test compound; for viability at 270 µM: 270 μM test compound
[4] = system: HMGN1; assay: HMGN1 ELISA in culture medium of A549 cancer cells (Example 12, Table 66); conditions: Homo sapiens, A549, doxorubicin-induced senescent A549 cells, ELISA, DMSO = 100, read-out: HMGN1 (amount of HMGN1 secreted in the cell culture); for activity at 90 µM: test compound 90 μM; for activity at 30 µM: test compound 30 μM; for activity at 270 µM: test compound 270 μM

SMILES	activity at 90 µM [1]	viability at 1.1 µM [2]	viability at 10 µM [2]	viability at 30 µM [2]	viability at 90 µM [2]	viability at […] [2]	viability at 1.1 µM [3]	viability at 10 µM [3]	viability at 30 µM [3]	viability at 90 µM [3]	activity at 90 µM [4]	activity at 30 µM [1]	activity at 30 µM [4]	activity at 270 µM [1]	viability at 270 µM [2]	viability at 270 µM [3]	activity at 270 µM [4]
CCCCC/C=C\C/C=C\CCCCCCCC(=O)O [LX-2703, Linoleic acid]	218%	100%	89.5%	55.2%	35.2%	100%	101%	99.6%	71.5%	28.3%	202%						
CCCCC/C=C\C/C=C\C/C=C\CCCCCCC(=O)O [LX-2705, Dihomogamma-linolenic acid]	202%	102%	72.1%	45.5%	31.7%	102%	101%	96.8%	100%	61.2%	160%						
COC(=O)C1=C(C)NC(C)=C(C(=O)OC(C)(C)CN(C)CCC(c2ccccc2)c2ccccc2)C1c1cccc([N+](=O)[O-])c1 (centres unmarked) [LX-2801, Lercanidipine, reference compound]		104%	51.2%	25.3%		98.5%	89.6%	58.6%	14.2%			241%	315%				
O=C1C(O)=C([C@H]2CC[C@H](c3ccc(Cl)cc3)CC2)C(=O)c2ccccc21 [LX-2802, Atovaquone, reference compound]		102%	58.4%	17.2%		81.2%	101%	74.1%	35.7%			268%	279%				
COc1cc2nccc(Oc3ccc(NC(=O)NC4CC4)c(Cl)c3)c2cc1C(N)=O [LX-2803, Lenvatinib, reference compound]		62%	11.5%	3.6%		43.9%	91.2%	84.9%	54.4%			282%	195%				
CCCCS(=N)(=O)CCC(N)C(=O)O (centres unmarked) [LX-2805, Buthionine sulfoximine]		99.4%	92%	84.2%	82%	97.3%	105%	96.7%	82.9%	73.3%				182%	51.1%	49.3%	158%
C=CC(=O)Nc1cccc(Oc2nc(Nc3ccc(N4CCN(C)CC4)cc3)nc3ccoc23)c1 [LX-2902, Poseltinib, reference compound]		1.9%					95.7%	72.4%	31.2%			297%	271%				
CN(C)CCCN1c2ccccc2CCc2ccc(Cl)cc21 [LX-3101, Clomipramine, reference compound]		93.3%	11.7%			75.8%	89.2%	7.1%				284%	334%				
O=C(NCc1ccncc1)C12CC3CC(C1)CC(c1ccc(Cl)cc1)(C3)C2 [LX-3106, Opaganib, reference compound]	254%	97.7%	82.5%	59.7%	9.8%	87.4%	108%	91.7%	76.8%	4.7%	236%						
C[C@H](N)C(=O)N1C[C@H](CCCB(O)O)[C@](N)(C(=O)O)C1 [LX-3107]		87.7%	74.2%	33.4%		83.4%	96.5%	77.8%	4.4%			196%	267%				
O=C(O)CCCCC(CCSCc1ccccc1)SCc1ccccc1 (centres unmarked) [LX-3109, Devimistat, reference compound]		97.2%	88.7%	74%	48.7%	96%	108%	85.7%	68.2%	43.4%				232%	19.7%	0.1%	247%
CC(=O)N[C@@H](Cc1c[nH]c2ccccc12)C(=O)N[C@@H](CCC(=O)C=[N+]=[N-])C(=O)OC(C)C [LX-3201, Sirpiglenastat, reference compound]		99.3%	20.1%			91.9%	96.5%	68.1%	12.8%			286%	309%				
Cc1[nH]nc(C(F)(F)F)c1Cc1sc2c(c1C(=O)N1C[C@](C)(O)CO1)c(=O)n(C)c(=O)n2C(C)C [LX-3203]		107%				15.4%	105%	21.6%				315%	293%				
Nc1cccc2c1CN(C1CCC(=O)NC1=O)C2=O (centres unmarked) [LX-3207, Lenalidomide, reference compound]		99.3%	56.4%	17.9%		91.9%	101%	76.4%	18.9%			219%	222%				
C=CC(=O)N1CCC[C@@H](n2nc(-c3ccc(Oc4ccccc4)cc3)c3c(N)ncnc32)C1 [LX-3209, Ibrutinib, reference compound]		105%	2%			52.8%	95.4%	55.7%	2.2%			274%	199%				
Cc1ccc(Nc2nccc(N(C)c3ccc4c(C)n(C)nc4c3)n2)cc1S(N)(=O)=O [LX-3301, Pazopanib, reference compound]	228%	100%	67.4%	39.5%	2.7%	99.2%	100%	85.9%	51.9%	4.2%	229%						
COc1cc2c(Nc3ccc(Br)cc3F)ncnc2cc1OCC1CCN(C)CC1 [LX-3302, Vandetanib, reference compound]		99.3%	6.7%			51.9%	99.5%	67.9%	16.4%			268%	232%				
CCc1nc(C(N)=O)c(Nc2ccc(N3CCC(N4CCN(C)CC4)CC3)c(OC)c2)nc1NC1CCOCC1 [LX-3303, Gilteritinib, reference compound]		83.9%	13.9%			69.4%	101%	53.8%	11.7%			275%	239%				
CO[C@@H]1[C@H](N(C)C(=O)c2ccccc2)C[C@H]2O[C@]1(C)n1c3ccccc3c3c4c(c5c6ccccc6n2c5c31)C(=O)NC4 [LX-3307, Midostaurin, reference compound]		108%	32.7%			96.1%	99.8%	51.9%	20%			288%	295%				
C=CC(=O)N1CCC([C@@H]2CCNc3c(C(N)=O)c(-c4ccc(Oc5ccccc5)cc4)nn32)CC1 [LX-3309, Zanubrutinib, reference compound]		99.3%	36.9%			87.1%	104%	49.6%	35.2%			293%	247%				
